# Results from US20210128511A1, “PRODRUG COMPOSITIONS AND METHODS OF TREATMENT” (AQUESTIVE THERAPEUTICS, INC., priority 2019, published 2021).
# Entries after “also recorded” stand apart in the source; their conditions may differ.
# What was measured:
# [1] = Ex vivo permeation study, Franz diffusion cell; format: in vitro ADME, porcine; details: for permeation: ex vivo, compared to L-Dipivefrin
# Method: The Franz diffusion cell apparatus consists of two chambers separated by a membrane. The permeation studies were conducted using porcine buccal mucosa obtained from a slaughterhouse. The tissues were dermatomed to typically […] and mounted in vertical Franz diffusion cells maintained at 37° C. The tissue membrane separates the donor compartment containing the drug mixed with the permeation enhancer solution and the receptor compartment containing the collection media whish was selected to provide sink conditions throughout the experiment. The permeation rate was observed over several hours by analysing drug concentration in the receptor medium.
# In one example, a permeation procedure is conducted as follows. A temperature bath is set to 37° C., and receiver media is placed in a water bath to adjust the temperature and begin degassing. A Franz diffusion cell is obtained and prepared. The Franz diffusion cell includes a donor compound, a donor chamber, a membrane, sampling port, receptor chamber, stir bar, and a heater/circulator. A stir bar is inserted into a Franz diffusion cell. Tissue is placed over the Franz diffusion cell, and it is ensured that the tissue covers the entire area with an overlap onto a glass joint. The top of a diffusion cell is placed over the tissue, and the top of the cell is clamped to the bottom. About 5 mL of receptor media is loaded into the receiver area to ensure that no air bubbles are trapped in the received portion of the cell. This ensures that all 5 mL can fit into the receiver area. Stirring is begun, and temperature is allowed to equilibrate for about 20 minutes. Meanwhile, High Performance Liquid Chromatography (HPLC) vials are labelled by cell number and time point. One must then check again for air bubbles as the solution will degas during heating.
# If testing films, one can perform the following next steps: (1) weigh films, punch to match diffusion area (or smaller), reweigh, record pre- and post-punching weight; (2) wet a donor area with approximately 100 μL of phosphate buffer; (3) place film on a donor surface, top with 400 μL of phosphate buffer, and start timers.
# For solution studies, one can perform the following steps: (1) using a micropipette, dispense 500 μL of the solution into each donor cell, start the timers; (2) sample 200 μL at the following time points (time=0 min, 20 min, 40 min, 60 min, 120 min, 180 min, 240 min, 300 min, 360 min), and place in labelled HPLC vials, ensure no air is trapped in the bottom of the vial by tapping the closed vials; (3) replace each sample time with 200 uL of receptor media (to maintain 5 mL); (4) When all time points completed, disassemble the cells and dispose of all materials properly.
# 1. Tissue is freshly excised and shipped (e.g. overnight) at 4° C. 2. The tissue is processed and frozen at −20° C. for up to three weeks prior to use. 3. The tissue is dermatomed to precise thickness. 4. Approximately 5 mL of receiving media is added to the receiving compartment. The media is selected to ensure sink conditions. 5. The tissue is placed in a Franz diffusion cell, which includes a donor compound, a donor chamber, a membrane, sampling port, receptor chamber, stir bar, and a heater/circulator. 6. Approximately 0.5 mL of donor solution is applied or 8 mm circular film and wetted with 500 μL PBS buffer. 7. Samples are taken from the receiving chamber at given intervals and replaced with fresh media.
# [2] = Hydrolysis testing after IV exposure, PK parameters; format: in vivo
# Method: Hydrolysis was analyzed after intravenous (IV) administrations. All Groups were tested at the following time intervals: 0 (predose), 2, 5, 10, 12, 15, 17, 20, 25, 30, 40, 60, 90 and 120 minutes and 3 hr, 4 hr, 6 hr and 8 hr post dose.
# [3] = In vitro human whole blood hydrolysis assay; details: for hydrolysis in human whole blood compared to L-Dipivefrin: 1 μM, 37° C., up to 6 hours, epinephrine in plasma by LC-MS/MS
# Method: Fresh healthy human whole blood was collected in blood collection tubes and preincubated for 30 min at 37° C.
# Using human whole blood in vitro, epinephrine levels in plasma was measured. Whole blood was collected from 2 donors. Compounds were incubated at 1 μM conc with Stabilizer. Plasma was separated after stopping the enzyme reaction at different timepoints. Samples were extracted and analyzed by LC-MS method.
# [4] = Effect of sodium fluoride on drug absorption; details: relative to compositions that did not include NaF
# From the text: Referring to FIG. 17, the graph indicates the effect of sodium fluoride on drug absorption.
# [5] = Intramuscular study in minipig for prodrugs, epinephrine pharmacokinetic profile; format: in vivo, male Yucatan miniature swine; details: epinephrine in plasma, IM 2 mg/animal
# Method: (§1) Yucatan minipigs (n=4 males per group) were weighed and weights were recorded. The morning of the study, the vascular access port (VAP) of each animal was checked for proper functioning. Minipigs with viable VAP were removed from the home cage and placed in a holding sling. The animals were fasted overnight prior to dose administration and for the duration of PK blood collections.
# All the formulations were prepared fresh on the day of dosing and maintained on wet ice until dosing. The dose was injected in the rear hind limb. Prior to administering, the plunger of the syringe was aspirated and observed for any blood that may flow into the syringe. If no blood was observed, it was verified that the needle was in proper placement, and the test articles were administered.
# At each specified time-point, 6 mL of whole blood was collected into blood collection tubes containing K2EDTA as the anticoagulant and sodium metabisulfite as stabilizer. Sodium metabisulfite was at a concentration of 8.9 mM, pH 3 (60 μL/6 mL of whole blood of the 890 mM stock solution). SigmaFast (600 μL of SigmaFast 1× solution to 6 mL of whole blood) was added immediately to the tubes as the enzyme arresting agent. The tubes were inverted several times for mixing upon addition of SigmaFast solution. […] The resulting plasma was obtained and stored at approximately […]. The analysis of epinephrine was done using LC-MS/MS method.
# as §1, with “Applicants sought to identify epinephrine prodrugs with higher permeability and slower hydrolysis after intramuscular (IM) administrations. […] Yucatan” for “Yucatan”, “minipigs” for “minipigs (n=4 males per group)”, “in the” for “weights were recorded. The”
# The dose was injected in the rear hind limb. […] At each specified time-point, 6 mL of whole blood was collected into blood collection tubes containing anticoagulant and stabilizer. Protease inhibitor cocktail was added and the tubes were inverted several times for mixing. All blood samples were centrifuged and the resulting plasma was analyzed for epinephrine using LC-MS/MS method.
hydrolysis in human whole blood compared to L-Dipivefrin [3],Structure (SMILES),permeation [1],Cmax and AUC compared among prodrugs [5],also measured
–,CCCC(=O)Oc1ccc(C(O)CNC)cc1OC(=O)CCC (centres unmarked) [AQEP-05],effective permeation,–,conversion to epinephrine after IV administration compared to L-Dipivefrin [2]: Rapid conversion
faster hydrolysis,CCOC(=O)Oc1ccc(C(O)CNC)cc1OC(=O)OCC (centres unmarked) [AQEP-12],–,–,–
faster hydrolysis,CCCCCC(=O)Oc1ccc(C(O)CNC)cc1OC(=O)CCCCC (centres unmarked) [AQEP-11],–,–,permeation (flux vs. carbon chain length) ([1]; 5 carbon straight chain): permeation dropped
faster hydrolysis,CNCC(O)c1ccc(OC(=O)C(C)C)c(OC(=O)C(C)C)c1 (centres unmarked) [AQEP-09],effective permeation,–,"ex vivo permeation of film formulations with varying polysaccharide content ([1]; formulations containing pullulan, compared to L-dipivefrin): Higher permeation; absorption with addition of NaF to the formulation [4]: increased the absorption"
–,CNCC(OC(=O)C(C)(C)C)c1ccc(OC(=O)C(C)(C)C)c(OC(=O)C(C)(C)C)c1 (centres unmarked) [AQEP-01],–,AQEP-04>AQEP-02>AQEP-03>AQEP-01,–
–,CCC(=O)Oc1ccc(C(O)CNC)cc1OC(=O)CC (centres unmarked) [AQEP-10],effective permeation,–,–
faster hydrolysis,CNCC(O)c1ccc(OC(=O)c2ccccc2)c(OC(=O)c2ccccc2)c1 (centres unmarked) [AQEP-04],did not permeate as well; also recorded: did not permeate higher than L-Dipivefrin,"higher Cmax and AUC compared to Prodrugs 01, 02 and 03","Cmax and AUC compared to L-Dipivefrin [5]: less; plasma levels of epinephrine converted from prodrug, compared to L-Dipivefrin ([3]; 1 μM in human whole blood in vitro): Rapid conversion and higher levels of epinephrine"
–,CCC(C)(C)C(=O)Oc1ccc(C(O)CNC)cc1OC(=O)C(C)(C)CC (centres unmarked) [AQEP-02],–,AQEP-04>AQEP-02>AQEP-03>AQEP-01,–
faster hydrolysis,CCCCC(=O)Oc1ccc(C(O)CNC)cc1OC(=O)CCCC (centres unmarked) [AQEP-08],effective permeation,–,–

Structure (SMILES),hydrolysis in human whole blood compared to L-Dipivefrin [3],permeation [1],Cmax and AUC compared among prodrugs [5],also measured
CC(C)OC(=O)N(C)CC(O)c1ccc(O)c(O)c1 (centres unmarked) [AQEP-06],did not show any hydrolysis; also recorded: did not show faster hydrolysis,–,–,–
CN(CC(O)c1ccc(O)c(O)c1)C(=O)OC(C)(C)C (centres unmarked) [AQEP-07],did not show any hydrolysis; also recorded: did not show faster hydrolysis,–,–,–
CNCC(O)c1ccc(OC(=O)N(C)C)c(OC(=O)N(C)C)c1 (centres unmarked) [AQEP-03],minimal hydrolysis; also recorded: did not show faster hydrolysis,–,AQEP-04>AQEP-02>AQEP-03>AQEP-01,–
